Earlier results on one molecule are cited in US10675364B2, “Rhodol fluorophores for near-infrared imaging” (The Board of Trustees of the Leland Stanford Junior …, priority 2015, dated 2020).

By pKa is commonly meant the pH at which an ionisable group is half protonated.

For the series the following is noted: highly sensitive to pH in the physiological range.

Consider `O=C1OC2(c3ccc(O)cc3Oc3cc(O)ccc32)c2ccccc21` [fluorescein], for which the pKa is reported as 6.3.
